{
  "source": "patent US20220265667A1",
  "about": "(priority 2019, published 2022)",
  "key": {"[1]": {"test_system": "murine bone marrow-derived mast cells (BMMCs)", "test": "In vitro release of β-hexosaminidase (degranulation) from IgE-preloaded murine bone marrow-derived mast cells", "format": "cell-based, mice", "description": "(§1) According to the technique established by Razin et al. (Proc. Natl. Acad. Sci. USA 1981, 78:2559-2561), bone marrow cells (1×10^6/ml) from 6 to 8 week old mice (129/Sv×C57BL/6) were cultured (37° C. and 5% CO2) as single cell suspensions in RPMI 1640 medium (Sigma-Aldrich, Munich, Germany) supplemented with 15% fetal calf serum (FCS), 1% X63Ag8-653-conditioned medium (Karasuyama and Melchers, Eur. J. Immunol. 1988, 18:97-104), 2 mM L-glutamine, 10 μM β-mercaptoethanol, 50 units/ml penicillin, and […] streptomycin. At weekly intervals, the non-adherent cells were reseeded at 5×10^5 cells/ml in fresh medium. After 4-6 weeks in culture, greater than 99% of the cells were KIT- and […] as assessed by fluorescence-activated cell sorting (FACS) using phycoerythrin-labeled anti-KIT antibodies (Pharmingen, Mississauga, Canada) and fluorescein isothiocyanate (FITC)-labelled hamster anti-mouse FcεRIα antibodies (eBioscience, Frankfurt, Germany), respectively. The resulting cells are called bone marrow-derived mast cells (BMMCs).\n(§2) For degranulation studies, BMMCs were preloaded with 0.15 μg/ml IgE anti-DNP (dinitrophenyl; Sigma Aldrich, Munich, Germany) overnight at 37° C. The cells were then washed and resuspended in Tyrode's buffer (130 mM NaCl, 5 mM KCl, 1.4 mM CaCl2, 1 mM MgCl2, 5.6 mM glucose, and 0.1% bovine serum albumin (BSA) in 10 mM Hepes, pH 7.4).\nSubsequently, the cells were left unstimulated (unst) or stimulated with 20 ng/ml antigen (Ag: dinitrophenyl-human serum albumin ([DNP-HSA]; dissolved in medium); Sigma Aldrich, Munich, Germany) for 30 min. The degree of degranulation was determined by measuring the release of β-hexosaminidase (Nishizumi et al., J Immunol 1997; 158:2350-2355). Experiments were performed in triplicates."}, "[2]": {"test_system": "murine bone marrow-derived mast cells (BMMCs)", "test": "In vitro release of Interleukin-6 (IL-6) from IgE-preloaded murine bone marrow-derived mast cells (ELISA)", "format": "cell-based, mice", "settings": "Mus musculus, BMMC, 3 h; read-out: percentage of inhibition of IL-6 release", "description": "as §1, §2\nSubsequently, the cells were left unstimulated (unst) or stimulated with 20 ng/ml Ag (dissolved in medium) for 3 h. Subsequently, the cells were pelleted by centrifugation and the resulting cell pellet was discarded. For the determination of the amount of degranulated IL-6, the respective supernatant obtained by centrifugation was subjected to an IL-6 ELISA according to the manufacturer's instructions (BD, Heidelberg, Germany). Experiments were performed in triplicate."}, "[3]": {"test_system": "human nasal tissue mast cells activated with SCF", "test": "Ex vivo SCF-induced tryptase release (degranulation) of human nasal tissue mast cells", "format": "cell-based", "settings": "for Tryptase: with SCF; for inhibition at 1 µM / inhibition at 3 µM / inhibition at 10 µM / inhibition at 30 µM / inhibition at 60 µM / inhibition at 150 µM / inhibition at 300 µM / IC50: Homo sapiens, Mast cell; for inhibition at 1 µM / inhibition at 3 µM / inhibition at 10 µM / inhibition at 30 µM / inhibition at 60 µM / inhibition at 150 µM / inhibition at 300 µM: read-out: percentage inhibition of degranulation (tryptase); for IC50: read-out: IC50 ex vivo inhibition of tryptase degranulation; for HillSlope / LogIC50: SCF", "description": "Fresh human nasal mucosa was used (middle nasal turbinate), which was surgically removed as standard procedure during nose correction surgeries (septorhinoplasty with conchotomy). Only tissues from those patients who had not previously received medication in the form of cortisone preparations or antihistamines were used. The removed tissue was cleansed immediately after the surgical removal with Epilife Medium (Thermo Fisher Scientific, No. […]500), referred to as “medium” in terms of ex vivo experiments, a chemically defined, serum-free full medium for epithelial cells and keratinocytes. The tissue was then cut into 12 pieces of equal size, cleansed again in the medium, and the exact fresh weight of the cut tissue pieces was determined for later normalization and then stored overnight in cold medium. The weight of the tissue pieces varied between 10 and 20 mg.\nAfter an one hour of pre-incubation with the respective compositions i) or ii), 0.4 μg/ml stem cell growth factor (SCF, Peprotech) was added to each well—except for one well serving as the negative control—in order to induce tryptase degranulation. […] Immediately after the removal of 250 μl supernatant, the volume in each well was increased to the original level and the original composition by adding 250 μl of the respective composition i), and ii).\nFor the determination of the amount of degranulated tryptase, the frozen supernatants were thawed at 22° C. and then subjected to a tryptase ELISA Kit from Boster Biological Technology Co., Ltd (No. EZ0898, Assay Range: 156-10000 pg/ml, Sensitivity: <15 pg/ml) according to manufacturer's instructions, and the ELISA measurements were performed with the Multiskan Go instrument from Thermo Scientific and the SkanIt Re 4.1 software.\nThe statistical analysis was conducted in two steps. In a first step, the raw measurement values were normalized to 10 mg tissue. In a second step, a correction factor was introduced for all time points of supernatant removal to compensate for the 250 μl supernatant taken for analysis at each time and the subsequent re-addition of medium incl. factors. The statistical calculations were performed with Microsoft Excel 2010.\nFor the analysis, a non-linear regression (variable slope—4-parametric) was used. The program setting “Dose-Response-Inhibition” was applied for an automatic calculation, readout and display of the IC50 values."}, "[4]": {"settings": "Mus musculus, BMMC, read-out: percentage of inhibition of β-hexosaminidase release"}},
  "note": "Where two headings read alike, the source gives them in different places.",
  "data": [
    {"smiles": "CCNC1=Nc2ccc(Cl)cc2C(C)(c2ccccc2)O1", "note": "(racemic) [Etifoxine, 6-Chloro-2-N-ethyl-4-methyl-4-phenyl-4H-3,1-benzoxazine-2-amine]", "values": [
      {"measurement": "inhibition at 10 µM", "setting": "[1]; [4]", "value": 30, "unit": "%"},
      {"measurement": "inhibition at 30 µM", "setting": "[1]; [4]", "value": 68, "unit": "%"},
      {"measurement": "activity (degranulation) of unstimulated IgE-loaded BMMCs", "setting": "[1]; unstimulated (absence of Ag), independently of the concentration studied", "value": "not significantly affected"},
      {"measurement": "inhibition at 3 µM", "setting": "[2]", "value": 20, "unit": "%"},
      {"measurement": "inhibition at 10 µM", "setting": "[2]", "value": 48, "unit": "%"},
      {"measurement": "inhibition at 30 µM", "setting": "[2]", "value": 92, "unit": "%"},
      {"measurement": "Tryptase", "setting": "[3]; 1 μM Etifoxine, 120 min", "value": 12.1, "unit": "pg/ml/10 mg tissue"},
      {"measurement": "Tryptase", "setting": "[3]; 1 μM Etifoxine, 240 min", "value": 1113.7, "unit": "pg/ml/10 mg tissue"},
      {"measurement": "Tryptase", "setting": "[3]; 1 μM Etifoxine, 480 min", "value": 1791.7, "unit": "pg/ml/10 mg tissue"},
      {"measurement": "Tryptase", "setting": "[3]; 1 μM Etifoxine, 1440 min", "value": 5547.4, "unit": "pg/ml/10 mg tissue"},
      {"measurement": "Tryptase", "setting": "[3]; 3 μM Etifoxine, 120 min", "value": 38.7, "unit": "pg/ml/10 mg tissue"},
      {"measurement": "Tryptase", "setting": "[3]; 3 μM Etifoxine, 240 min", "value": 1030.3, "unit": "pg/ml/10 mg tissue"},
      {"measurement": "Tryptase", "setting": "[3]; 3 μM Etifoxine, 480 min", "value": 1789.0, "unit": "pg/ml/10 mg tissue"},
      {"measurement": "Tryptase", "setting": "[3]; 3 μM Etifoxine, 1440 min", "value": 5512.9, "unit": "pg/ml/10 mg tissue"},
      {"measurement": "Tryptase", "setting": "[3]; 10 μM Etifoxine, 120 min", "value": 71.9, "unit": "pg/ml/10 mg tissue"},
      {"measurement": "Tryptase", "setting": "[3]; 10 μM Etifoxine, 240 min", "value": 594.5, "unit": "pg/ml/10 mg tissue"},
      {"measurement": "Tryptase", "setting": "[3]; 10 μM Etifoxine, 480 min", "value": 1284.9, "unit": "pg/ml/10 mg tissue"},
      {"measurement": "Tryptase", "setting": "[3]; 10 μM Etifoxine, 1440 min", "value": 3185.9, "unit": "pg/ml/10 mg tissue"},
      {"measurement": "Tryptase", "setting": "[3]; 30 μM Etifoxine, 120 min", "value": 109.4, "unit": "pg/ml/10 mg tissue"},
      {"measurement": "Tryptase", "setting": "[3]; 30 μM Etifoxine, 240 min", "value": 449.9, "unit": "pg/ml/10 mg tissue"},
      {"measurement": "Tryptase", "setting": "[3]; 30 μM Etifoxine, 480 min", "value": 979.7, "unit": "pg/ml/10 mg tissue"},
      {"measurement": "Tryptase", "setting": "[3]; 30 μM Etifoxine, 1440 min", "value": 2400.2, "unit": "pg/ml/10 mg tissue"},
      {"measurement": "Tryptase", "setting": "[3]; 60 μM Etifoxine", "value": 1218.2, "unit": "pg/ml/10 mg tissue"},
      {"measurement": "Tryptase", "setting": "[3]; 60 μM Etifoxine, 120 min", "value": 152.7, "unit": "pg/ml/10 mg tissue"},
      {"measurement": "Tryptase", "setting": "[3]; 60 μM Etifoxine, 240 min", "value": 345.9, "unit": "pg/ml/10 mg tissue"},
      {"measurement": "Tryptase", "setting": "[3]; 60 μM Etifoxine, 480 min", "value": 689.7, "unit": "pg/ml/10 mg tissue"},
      {"measurement": "Tryptase", "setting": "[3]; 150 μM Etifoxine", "value": 1040.1, "unit": "pg/ml/10 mg tissue"},
      {"measurement": "Tryptase", "setting": "[3]; 150 μM Etifoxine, 120 min", "value": 163.3, "unit": "pg/ml/10 mg tissue"},
      {"measurement": "Tryptase", "setting": "[3]; 150 μM Etifoxine, 240 min", "value": 576.8, "unit": "pg/ml/10 mg tissue"},
      {"measurement": "Tryptase", "setting": "[3]; 150 μM Etifoxine, 480 min", "value": 1042.4, "unit": "pg/ml/10 mg tissue"},
      {"measurement": "Tryptase", "setting": "[3]; 300 μM Etifoxine, 120 min", "value": 71.9, "unit": "pg/ml/10 mg tissue"},
      {"measurement": "Tryptase", "setting": "[3]; 300 μM Etifoxine, 240 min", "value": 459.3, "unit": "pg/ml/10 mg tissue"},
      {"measurement": "Tryptase", "setting": "[3]; 300 μM Etifoxine, 480 min", "value": 991.8, "unit": "pg/ml/10 mg tissue"},
      {"measurement": "Tryptase", "setting": "[3]; 300 μM Etifoxine, 1440 min", "value": 559.4, "unit": "pg/ml/10 mg tissue"},
      {"measurement": "inhibition at 1 µM", "setting": "[3]; 4 h", "value": 0, "unit": "%"},
      {"measurement": "inhibition at 3 µM", "setting": "[3]; 4 h", "value": 0, "unit": "%"},
      {"measurement": "inhibition at 10 µM", "setting": "[3]; 4 h", "value": 15, "unit": "%"},
      {"measurement": "inhibition at 30 µM", "setting": "[3]; 4 h", "value": 56, "unit": "%"},
      {"measurement": "inhibition at 60 µM", "setting": "[3]; 4 h", "value": 85, "unit": "%"},
      {"measurement": "inhibition at 150 µM", "setting": "[3]; 4 h", "value": 21, "unit": "%"},
      {"measurement": "inhibition at 300 µM", "setting": "[3]; 4 h", "value": 53, "unit": "%"},
      {"measurement": "inhibition at 1 µM", "setting": "[3]; 8 h", "value": 0, "unit": "%"},
      {"measurement": "inhibition at 3 µM", "setting": "[3]; 8 h", "value": 0, "unit": "%"},
      {"measurement": "inhibition at 10 µM", "setting": "[3]; 8 h", "value": 28, "unit": "%"},
      {"measurement": "inhibition at 30 µM", "setting": "[3]; 8 h", "value": 90, "unit": "%"},
      {"measurement": "inhibition at 60 µM", "setting": "[3]; 8 h", "value": 148, "unit": "%"},
      {"measurement": "inhibition at 150 µM", "setting": "[3]; 8 h", "value": 77, "unit": "%"},
      {"measurement": "inhibition at 300 µM", "setting": "[3]; 8 h", "value": 87, "unit": "%"},
      {"measurement": "IC50", "setting": "[3]; 4 hours after SCF addition", "value": 6.12, "unit": "µM"},
      {"measurement": "IC50", "setting": "[3]; 8 hours after SCF addition", "value": 9.07, "unit": "µM"},
      {"measurement": "HillSlope", "setting": "[3]; Tryptase 4 h", "value": "−2.791"},
      {"measurement": "LogIC50", "setting": "[3]; Tryptase 4 h", "value": 0.7865},
      {"measurement": "HillSlope", "setting": "[3]; Tryptase 8 h", "value": "−3.492"},
      {"measurement": "LogIC50", "setting": "[3]; Tryptase 8 h", "value": 0.9578},
      {"measurement": "inhibition of SCF-triggered tryptase release (degranulation) achieved (complete)", "setting": "[3]; summary statement, mast cells of human nasal pieces", "value": 100, "unit": "%"}
    ]}
  ]
}
